This assay concerns the target ITK enzyme (ITK FL, N-Flag and C-His tagged) (Homo sapiens (Human), UniProt Q08881). Nature of the assay: ITK enzyme assay (IL-2-inducible T-cell kinase activity). The note with it: geometric mean of count n. In kind it is biochemical. The method, then: IL-2-Inducible T-Cell Kinase (ITK) Activity, IC50 (nM)
ITK activity was determined by measuring the effect of a test compound in an ITK enzyme assay.
1.0 M HEPES Buffer pH 7.5 solution was prepared as follows: 238.3 g HEPES free acid (Sigma) and 800 mL of water were combined, and the mixture was stirred until complete dissolution. The pH was adjusted to 7.5 via titration with 5N NaOH and the volume adjusted to 1000 mL. The solution was filtered and sterilized.
ITK assay buffer was prepared as follows: 50 mL of HPLC-grade water was treated with 2 mL of 1.0 M HEPES Buffer, 500 μL of 2% Gelatin (Sigma), 1.0 mL of aqueous MgCl2 solution (1.0 M), and 1.0 mL of aqueous glutathione solution (0.5 M), and the solution was mixed. The solution was brought to 99 mL in a graduated cylinder by addition of water and sterilized through a 0.2 μm filter. 0.1 mL of Brij-35™ Surfact-Amps™ Detergent Solution (10% w/v aqueous solution, ThermoFisher) and 1.0 mL of ATP (Teknova, 100 mM) were added and the solution was mixed.
The resulting solution was stored on ice. 30 Minutes prior to use, the enzyme solution was removed from ice and equilibrated to RT by incubation in a RT water bath.
Preparation of 4×ITK substrate solution was as follows: 50 mL of ITK assay buffer was treated with 100 μL of BTK peptide (China Peptide Company, 2 mM stock solution in DMSO). The tube was capped, mixed by gently inverting the tube, and then stored on ice. 30 Minutes prior to use, the substrate solution was removed from ice and equilibrated to RT by incubation in a RT water bath.
At the time of assay, 7.5 μL of the 1.33×ITK enzyme solution was added to plate wells containing 0.1 μL of varying concentrations of test compound in DMSO. The plate was incubated 30 min at RT. The plate wells were each treated with 2.5 uL of the 4×ITK substrate solution and the plate was sealed (TopSeal™, Perkin Elmer). The plate was spun at 1000 rpm for 30 sec and then incubated for 60 min at RT. The seal was removed, and each well was treated with 10 μL of Stop/Detect Buffer (20 mM HEPES pH 7.5, 0.01% gelatin, 1 nM LANCE PT66 (Perkin Elmer), 16.5 μg/ml Surelight APC (Perkin Elmer), 10 mM EDTA, 250 mM NaCl). The plate was again covered and was spun at 1000 rpm for 30 seconds. The plate was allowed to incubate overnight at RT and in a closed carrier to reduce dehydration. The seal was removed, and the fluorescence was read with a plate reader with an excitation wavelength of […] and an emission wavelength of 615 nm.

As a reminder, the IC50 is the concentration at which inhibition is half-maximal. Low values mean greater potency, high ones weaker potency.

ITK enzyme (ITK FL, N-Flag and C-His tagged), sequence (Q08881 whole entry): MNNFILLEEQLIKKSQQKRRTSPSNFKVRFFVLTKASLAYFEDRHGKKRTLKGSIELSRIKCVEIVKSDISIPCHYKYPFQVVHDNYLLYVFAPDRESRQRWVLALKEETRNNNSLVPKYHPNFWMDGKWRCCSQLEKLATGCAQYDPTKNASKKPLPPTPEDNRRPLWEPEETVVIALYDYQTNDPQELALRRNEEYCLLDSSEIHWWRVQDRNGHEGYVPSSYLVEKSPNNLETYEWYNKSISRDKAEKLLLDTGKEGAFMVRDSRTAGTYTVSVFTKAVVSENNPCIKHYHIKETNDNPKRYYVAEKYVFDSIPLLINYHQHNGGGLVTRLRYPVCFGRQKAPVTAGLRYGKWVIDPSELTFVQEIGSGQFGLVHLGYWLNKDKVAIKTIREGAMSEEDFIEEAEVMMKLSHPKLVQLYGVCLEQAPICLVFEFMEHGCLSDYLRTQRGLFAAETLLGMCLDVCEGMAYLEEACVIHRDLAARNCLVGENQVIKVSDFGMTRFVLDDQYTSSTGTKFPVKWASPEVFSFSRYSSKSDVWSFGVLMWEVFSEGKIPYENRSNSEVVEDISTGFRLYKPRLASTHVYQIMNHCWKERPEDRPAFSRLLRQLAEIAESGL

The compound `COCCOc1cc2[nH]c(-c3n[nH]c4c3C[C@@H]3C[C@]3(C)C4)nc2cc1N(C)C(=O)[C@H](C)N1CCOCC1` [Example 49, (S)—N-(6-(2-methoxyethoxy)-2-((4aS,5aR)-5a-methyl-1,4,4a,5,5a,6-hexahydrocyclopropa[f]indazol-3-yl)-1H-benzo[d]imidazol-5-yl)-N-methyl-2-morpholinopropanamide] came in with an IC50 of 12 nM.

(Values after patent US20230280220A1, “Benzimidazole Derivative Compounds and Uses Thereof” (Pfizer Inc., priority 2019, published 2023).)
